According to ChEMBL document CHEMBL4311946, “Mechanistic Insight on the Mode of Action of Colletoic Acid” (J Med Chem, 2019):
The source made the active and inactive calls. The calls are words filed in the database; no cut-off is given here.

How the values were obtained:
[1] = Half life in human liver microsomes; format: ADME, Microsome
3T3-L1 [2] = assay: Cell cycle arrest in mouse 3T3L1 preadipocytes up to 1 mM measured after 24 hrs under non-differentiating medium by propidium iodide staining-based flow cytometry; format: ADME; conditions: 3t3-l1, 24 h
3T3-L1 [3] = assay: Anti-adipogenic activity in mouse 3T3L1 preadipocytes assessed as reduction in C/EBPbeta mRNA expression at 50 to 100 uM measured daily for 2 days under induction media containing dehydrocorticosterone/cortisone by SYBR green dye-based qRT-PCR analysis; format: functional, cell-based
3T3-L1 [4] = assay: Anti-adipogenic activity in differentiated mouse 3T3L1 cells assessed as reduction in FASN mRNA expression at 50 to 100 uM measured after 2 to 7 days by SYBR green dye-based qRT-PCR analysis relative to control; format: functional
[5] = Stability in mouse plasma; format: ADME, cell-free
3T3-L1 [6] = assay: Anti-adipogenic activity in differentiated mouse 3T3L1 cells assessed as reduction in PPARgamma mRNA expression at 50 to 100 uM measured after 2 to 7 days by SYBR green dye-based qRT-PCR analysis; format: functional, cell-based
Homo sapiens [7] = species on record: Homo sapiens; assay: Anti-adipogenic activity in human visceral preadipocytes assessed as reduction in pre-adipocyte differentiation into matured adipocytes at 50 uM incubated for 48 hrs under induction medium containing hydrocortisone hemi-succinate prior to compound washout followed by shifting to differentiation medium containing compound supplemented with fresh medium every 48 to 72 hrs for 9 to 14 days by oil red O staining-based microscopic analysis; format: functional, cell-based
3T3-L1 [8] = assay: Anti-adipogenic activity in mouse 3T3L1 preadipocytes assessed as decrease in lipid accumulation at 50 uM incubated for 48 hrs under induction medium containing dehydrocorticosterone/cortisone followed by shifting to differentiation medium and measured after 7 days by Oil red O staining-based microscopic analysis; format: functional, cell-based
[9] = Half life in simulated gastric fluid; format: ADME
3T3-L1 [10] = assay: Anti-adipogenic activity in mouse 3T3L1 preadipocytes assessed as decrease in lipid accumulation at 50 uM measured after 3 days under induction medium containing dehydrocorticosterone/cortisone by Oil red O staining-based microscopic analysis; format: functional, cell-based
Fibroblast [11] = assay: Effect on nascent protein synthesis in mouse fibroblasts assessed as reduction in O-Propargyl-puromycin incorporation at 50 uM by fluorescent azide/pico green dye-based confocal microscopic analysis; format: ADME, cell-based
3T3-L1 [12] = assay: Effect on total GR expression in differentiated mouse 3T3L1 cells at 50 uM measured on day 3 and 7 by Western blot analysis; format: ADME, cell-based; conditions: 3t3-l1, 50 µM
3T3-L1 [13] = assay: Anti-adipogenic activity in mouse 3T3L1 preadipocytes assessed as reduction in C/EBPdelta mRNA expression at 50 to 100 uM measured daily for 2 days under induction media containing dehydrocorticosterone/cortisone by SYBR green dye-based qRT-PCR analysis; format: functional, cell-based
Homo sapiens [14] = species on record: Homo sapiens; assay: Anti-adipogenic activity in human visceral preadipocytes assessed as decrease in lipid accumulation at 50 uM incubated for 48 hrs under induction medium containing hydrocortisone hemi-succinate prior to compound washout followed by shifting to differentiation medium containing compound supplemented with fresh medium every 48 to 72 hrs for 9 to 14 days by oil red O staining-based microscopic analysis; format: functional, cell-based
[15] = Volume of distribution at steady state in C57BL6 mouse at 5 to 30 mg/kg, iv by LC-MS analysis; format: ADME, organism-based; conditions: in vivo
3T3-L1 [16] = assay: Cytotoxicity against mouse 3T3L1 preadipocytes up to 1 mM measured after 72 hrs under non-differentiating medium by celltiter-glo luminescent cell viability assay; format: cell-based; conditions: 3t3-l1, 72 h
3T3-L1 [17] = assay: Anti-adipogenic activity in mouse 3T3L1 preadipocytes assessed as reduction in C/EBPalpha mRNA expression at 50 to 100 uM measured daily for 2 days under induction media containing dehydrocorticosterone/cortisone by SYBR green dye-based qRT-PCR analysis; format: functional, cell-based
3T3-L1 [18] = assay: Anti-adipogenic activity in differentiated mouse 3T3L1 cells assessed as reduction in 11beta-HSD1 expression at 50 uM measured on day 7 by Western blot analysis; format: functional, cell-based
3T3-L1 [19] = assay: Anti-adipogenic activity in mouse 3T3L1 preadipocytes assessed as restoration of cell morphology at 50 uM incubated for 48 hrs under induction medium containing dehydrocorticosterone/cortisone followed by shifting to differentiation medium and measured after 7 days by mitotracker red/lipidtox green staining-based confocal microscopic analysis; format: functional
3T3-L1 [20] = assay: Anti-adipogenic activity in differentiated mouse 3T3L1 cells assessed as reduction in PPARgamma expression at 50 uM measured on day 3 by Western blot analysis; format: functional, cell-based
3T3-L1 [21] = assay: Cytotoxicity against mouse 3T3L1 cells measured after 72 hrs by celltiter-glo luminescent cell viability assay; format: ADME, cell-based; conditions: 3T3-L1, 72 h
[22] = Half life in mouse liver microsomes; format: ADME, Microsome
3T3-L1 [23] = assay: Anti-adipogenic activity in differentiated mouse 3T3L1 cells assessed as reduction in PGC1alpha expression at 50 uM measured on day 3 by Western blot analysis; format: functional, cell-based
[24] = target: T1, 11-beta-hydroxysteroid dehydrogenase type 2 (Homo sapiens, UniProt P80365); assay: Inhibition of 11beta-HSD2 (unknown origin) expressed in HEK293 cells using cortisone as substrate measured after 2 hrs in presence of NAD+ by HTRF assay; format: ADME, cell-based
T1 sequence (P80365 whole entry): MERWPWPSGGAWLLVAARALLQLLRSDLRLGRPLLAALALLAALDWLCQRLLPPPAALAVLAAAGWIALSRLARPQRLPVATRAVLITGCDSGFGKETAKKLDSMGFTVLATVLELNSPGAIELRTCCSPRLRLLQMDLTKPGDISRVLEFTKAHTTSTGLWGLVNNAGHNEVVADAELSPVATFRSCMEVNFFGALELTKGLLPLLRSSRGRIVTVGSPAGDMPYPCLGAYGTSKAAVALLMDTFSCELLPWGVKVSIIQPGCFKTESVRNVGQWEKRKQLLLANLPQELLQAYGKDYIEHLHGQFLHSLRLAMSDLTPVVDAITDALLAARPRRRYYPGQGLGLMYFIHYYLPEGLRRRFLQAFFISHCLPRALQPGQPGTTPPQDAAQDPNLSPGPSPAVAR

Fibroblast [25] = assay: Effect on nascent protein synthesis in mouse fibroblasts assessed as reduction in O-Propargyl-puromycin incorporation at 50 uM measured after 2 hrs by fluorescent azide/pico green dye-based confocal microscopic analysis; format: ADME, cell-based
Homo sapiens [26] = assay: Anti-adipogenic activity in human subcutaneous preadipocytes assessed as decrease in lipid accumulation at 50 uM measured after 3 days under induction medium containing hydrocortisone hemi-succinate by oil red O staining-based microscopic analysis; format: functional, cell-based

With `CC1=CC[C@@]2(C[C@@H]1O)[C@@H](C(=O)O)CC[C@H]2C(C)C` the t1/2 [1] was 1.18 h, the Activity (3T3-L1 [2]) was “Non-Toxic” and the Activity (3T3-L1 [3]) was “Active”. For the same molecule, the “fold change (FC)” value (3T3-L1 [4]) was <10, the Stability [5] was “Unstable” and the Activity (3T3-L1 [6]) was “Active”. For the same molecule, the Activity (Homo sapiens [7]) was “Active”, the Activity (3T3-L1 [8]) was “Active” and the half-life [9] was < 120 min. For the same molecule, the Activity (3T3-L1 [10]) was “inactive”, the Activity (Fibroblast [11]) was “Non-Toxic” and the Activity (3T3-L1 [12]) was “Non-Toxic”. The Activity (3T3-L1 [13]) was “Active”, the Activity (Homo sapiens [14]) was “Active” and the Vdss [15] was 0.247 L/kg. The Activity (3T3-L1 [16]) was “Non-Toxic”, the Activity (3T3-L1 [17]) was “Active” and the Activity (3T3-L1 [18]) was “Active”. For the same molecule, the Activity (3T3-L1 [19]) was “Active”, the Activity (3T3-L1 [20]) was “inactive” and the EC50 (3T3-L1 [21]) was > 500 µM. The t1/2 [22] was 1.33 h, the Activity (3T3-L1 [23]) was “inactive” and the IC50 [24] was > 500 µM. The Activity (Fibroblast [25]) was “Non-Toxic” and the Activity (Homo sapiens [26]) was “inactive”.
